Test results as given in US20050112128A1, “Inhibition of protein kinase c-mu (PKD) as a treatment for cardiac hypertrophy and heart failure” (Myogen, Inc. and Board of Regents, The University of Texas …, priority 2003, published 2005).
“Also recorded” adds a separate entry of the source.

Experiments:
[1] = system: nuclear export of HDAC5 in COS cells; test: GFP-HDAC5 nuclear export in transfected COS cells (fluorescence microscopy); type: cell-based
Procedure: (§1) FIGS. 1A-D—PKC-dependent nuclear export of HDAC5. FIG. 1A. COS cells were cultured on 6-well dishes, transfected with a GFP-HDAC5 expression vector (1 μg) and stimulated with the indicated compounds, as described in Materials and Methods. Sixty minutes after addition of compounds, GFP-HDAC5 distribution was determined by fluorescence microscopy. […] FIG. 1B. COS cells were transfected with expression vectors encoding FLAG-tagged versions of either HDAC5 or an HDAC5 mutant harboring alanines in place of serines 259 and 498 (HDAC5 S259/498A) (1 μg each). Cells were stimulated with PMA for 60 min and HDAC5 distribution was determined by indirect immunofluorescence with anti-FLAG primary antibody and fluorecein-conjugated secondary antibody. HDAC5 259/498A is refractory to PMA stimulation. FIG. 1C. COS cells transfected with GFPHDAC5 encoding expression vector (1 μg) and stimulated with PMA for the indicated times. FIG. 1D. COS cells were transiently transfected with expression vectors encoding FLAG-tagged versions of HDAC5 or HDAC5 S259/498A (1 μg each). Cells were pretreated with the PKC inhibitor bisindolylmaleimide (Bis I; 10 μM) for 30 minutes and stimulated with PMA for 30 min, as indicated. Association of FLAG-HDAC5 with endogenous 14-3-3 was detected by sequential immunoprecipitation and immunoblotting.
Cell culture and transfection assays. COS cells were maintained in DMEM with FBS (10%), L-glutamine (2 mM), and penicillin-streptomycin. Transfection of COS cells was performed with Fugene 6 (Roche Molecular Biochemicals) according to manufacturer's instructions. For HDAC localization experiments, cells were treated 16-24 hours after transfection with PMA (100 nM), ionomycin […], 8-Br-cAMP (1 mM), pCPT-GMP (1 mM), or anisomycin (1 mM). Where noted, specific protein kinase inhibitors were added 30 min prior to the addition of any chemical stimulus. GFP-HDAC5 was visualized with standard fluorescent microscopic techniques. For indirect immunofluorescence of FLAG-HDAC5, COS cells were seeded on glass coverslips, transfected, and treated as above. After specific treatment, cells were fixed with buffered formalin (10%) and stained in PBS containing BSA (3%) and Nonidet P-40 (0.1%). Flag M2 antibody (Sigma) was used at a concentration of 1:200. Secondary fluoresceine-conjugated antibody (Vector Laboratories) was also used at a concentration of 1:200. Staining of cardiomyocytes for sarcomeres and atrial natriuretic factor (ANF) was performed by indirect immunofluorescence detection as above with antibodies directed against sarcomeric α-actinin (Sigma) and ANF (Peninsula Laboratories), respectively.

[2] = system: association of 14-3-3 with HDAC5; test: Co-immunoprecipitation of FLAG-HDAC5 with endogenous 14-3-3 in COS cells; type: cell-based; details: FLAG-HDAC5, PMA 30 min
Procedure: as §1, with “COS cells were transiently transfected with expression vectors encoding FLAG-tagged versions of HDAC5 or HDAC5 S259/498A (1 μg each). Cells were pretreated with the PKC inhibitor bisindolylmaleimide (Bis I; 10 μM) for 30 minutes and stimulated with PMA for 30 min, as indicated.” left out
Co-immunoprecipitation assays. […] Associated PKD was detected by immunoblotting with rabbit polyclonal antibodies against either PKD-1, PKD-1 phosphorylated at serines 744 and 748, or PKD-1 phosphorylated at serine 916 (Cell Signaling Technologies) were employed at 1:1000 dilutions.

[3] = system: NRVMs; test: ANF immunostaining of cardiomyocytes (hypertrophy marker); type: cell-based, rat; details: PE 20 μM or PMA 100 nM, 24 hrs
Procedure: FIGS. 3A-C—Inhibition of PKC-mediated cardiac hypertrophy by signalresistant HDAC5. NRVMs were cultured on 6-well dishes and infected with adenoviruses (MOI=10) encoding a LacZ control (Ad-LacZ) or FLAG-tagged HDAC5 harboring alanines in place of serines 259 and 498 (Ad-HDAC5 S/A), which are required for 14-3-3-mediated nuclear export. Cells were treated with PE (20 μM) or PMA (100 nM) for 24 hrs prior to analysis. FIG. 3A. Cells were fixed and sarcomeres visualized by indirect immunofluorescence with primary antibody specific for α-actinin and fluorescein-conjugated secondary antibody. FIG. 3B. ANF protein was detected by indirect immunofluorescence with anti-ANF primary antibody. FIG. 3C. Total RNA was harvested from cells and subjected to dot blot analysis with radiolabeled oligonucleotides specific for the indicated transcripts. RNA levels were quantified using a phosphorimager and are depicted as -fold change relative to amounts in unstimulated cells infected with Ad-LacZ. Values were normalized to GAPDH controls.
Cell culture and transfection assays. COS cells were maintained in DMEM with FBS (10%), L-glutamine (2 mM), and penicillin-streptomycin. Transfection of COS cells was performed with Fugene 6 (Roche Molecular Biochemicals) according to manufacturer's instructions. […]

[4] = system: HDAC5-bound PKD; type: biochemical, rat; details: NRVMs infected with Ad-FLAG-HDAC5; PMA 30 min
[5] = system: PKD; test: In vitro kinase assay with FLAG-HDAC5 immunoprecipitated from COS cells co-transfected with PKD; type: cell-based; details: PMA 30 min
Source text: FIGS. 5A-E—Protein kinase D is an HDAC5 kinase. FIG. 5A. Amino acid sequences surrounding the regulatory phosphorylation sites of class II HDACs. NLS: nuclear localization signal; HDAC domain: deacetylase catalytic domain. The consensus target site for PKD is shown. Leucine at position −5 relative the phosphorylation site is required for optimal PKD-directed phosphorylation of other proteins. FIG. 5B. COS cells were transfected with an expression vector encoding GFP fused to HDAC5 harboring glycines in place of leucines 254 and 493 (L254/493G). Twenty-four hrs post-transfection, cells were left untreated (control) or stimulated with PMA for 30 minutes. FIG. 5C. […] HDAC5 localization was determined 24 hrs post-transfection. FIG. 5D. […] Twenty-four hrs post-transfection, cells were treated with PMA or vehicle control for 30 min. FLAG-HDAC5 was immunoprecipitated from whole-cell protein lysates and either incorporated into an in vitro kinase assay (IVK) or resolved by SDS-PAGE for western blot analysis to detect associated PKD, as indicated. Phosphorylated HDAC5 was resolved by SDS-PAGE and detected by autoradiography. FIG. 5E. Mammalian two-hybrid assay. […]

CCCCCCCCCCCCCC(=O)O[C@@H]1[C@@H](C)[C@@]2(O)[C@@H](C=C(CO)C[C@]3(O)C(=O)C(C)=C[C@@H]23)[C@@H]2C(C)(C)[C@]12OC(C)=O [PMA, Phorbol 12-myristate 13-acetate]
stimulation of nuclear export of GFP-HDAC5 ([1]; COS cells transfected with GFP-HDAC5, 60 min after addition of compounds): complete relocalization of GFP-HDAC5 from the nucleus to the cytoplasm; also recorded: stimulated nuclear export of GFP-HDAC5; also recorded: more potent stimulator of export than ionomycin
time to complete HDAC5 nuclear export following addition of PMA ([1]; COS cells, GFP-HDAC5): ≤ 30 min
time to initiation of HDAC5 nuclear export following addition of PMA ([1]; COS cells, GFP-HDAC5): ≤ 15 min
association of 14-3-3 with HDAC5 [2]: enhanced
ANF protein expression [3]: prominent perinuclear ANF protein expression
HDAC5 phosphorylation after treatment of cells with PMA [4]: Increased HDAC5 phosphorylation
HDAC5 phosphorylation after PMA, activated PKD S/E co-transfected ([5]; FLAG-HDAC5 + PKD S/E): enhanced phosphorylation of HDAC5
HDAC5 phosphorylation after PMA, wild-type PKD co-transfected ([5]; FLAG-HDAC5 + PKD): increased the degree of HDAC5 phosphorylation
